The source of these data is patent US11324217B2, “Preparation method and application of polyketides bearing the trans-fused decalin skeleton” (QINGDAO AGRICULTURAL UNIVERSITY, priority 2019, dated 2022).

As usually defined, the inhibition is how much of the control response was suppressed.

In data set [1] the test system is Echinochloa crusgalli seedlings. Nature of the data set: Herbicidal activity test (PPA method), growth inhibition of radicles of weed seedlings. It is filed as in vivo. Particulars: Echinochloa crus-galli, 48 h, radicle length after 2 days in agar, read-out: Growth inhibition rates (%) to radicles of Echinochloa crusgalli seedlings; for inhibition at 2.5 µg/mL: 2.5 μg/mL; for inhibition at 5 µg/mL: 5 μg/mL; for inhibition at 10 µg/mL: 10 μg/mL. An excerpt:
The method of grinded plant tissue powder mixed with agar (PPA method), established by Luo Xiaoyong, et al. (Journal of Qingdao Agricultural University, 2007, 24: 267-270) is used to quickly determine the herbicidal activity of compounds. It has the advantages of high sensitivity, easy operation, good repeatability, and large-throughput screening. It is also easy to observe the growth status of indicator plants. Luo Xiaoyong used this method to quickly determine the herbicidal activity of the leaves of 40 garden plants. Zhang Lijuan (Plant Protection, 2016, 42: 63-66) and Su Fansheng (Applied Chemistry, 2014, 31: 290-295) quickly determined the herbicidal activity of corn stalks and imidazole compounds by the PPA method with Echinochloa crusgalli as the test weed. Zhang Yun (Journal of Microbiology, 2015, 55: 292-298) and Li Shuai (Journal of Agricultural and Food Chemistry, 2014, 62: 8997-9001) studied the inhibitory effect of microbial secondary metabolites on the root growth of Amaranthus retroflexus by using Amaranthus retroflexus as the test weed.
Weed seeds were first sterilized with 0.2% sodium hypochlorite for 15 min, then washed repeatedly with sterile distilled water, soaked for 4-6 h, and germinated for 12 h in a medical tray with sterile wet filter paper in a dark place.
The compound to be tested was dissolved in dimethyl sulfoxide (DMSO) to obtain a 4 mg/mL solution, and the 4 mg/mL solution was then diluted with 50% DMSO aqueous solution to different concentrations for later use.
1 mL of the sample solution and 99 mL of sterile agar aqueous solution were mixed well, and poured into three 25 mL small beakers to be condensed. Needle-nose tweezers were used to insert 5 small holes on the surface of the condensed agar, the germinated test weed seedlings with 4-5 radicles were clamped separately and inserted gently and vertically into the small holes. Each beaker had five pieces of such agar and the operation was repeated for three times. Then, all beakers were sealed with tin foil and placed in a sterilized small carton, and the sterilized small carton was then placed in an artificial climate box for shading culture for 2 days. The artificial climate box set an automatic cycle of 14 h lighting (25° C.) and 10 h shading (20° C.), and the relative humidity in the box was set at 60%. After 2 days, the lengths of the radicle and hypocotyl were investigated to calculate the weed growth inhibition rate.
The calculation equations were as follows (Chinese Agricultural Science Bulletin, 2013, 29: 177-182): Growth=length of radicle (hypocotyl) after treatment−length of radicle (hypocotyl) before treatment; Inhibition rate (%)=[(average growth of control−average growth of treatment)/average growth of control]×100%.

The subject of a further data set is Brine shrimp. Put plainly: Lethal activity of Brine shrimp. Conditions: concentration of 500 μg/mL; 24 h incubation at room temperature. The format is in vivo. The protocol:
Brine shrimp is an aquatic animal that is highly sensitive to toxic substances. It can be used as a model organism to preliminary evaluate the toxic effects of compounds on the environment. Masi, M. et al. used Brine shrimp to preliminary evaluate the toxicity of the herbicidal active compounds Colletochlorins E and F (Journal of Agricultural and Food Chemistry, 2017, 65: 1124-1130).
100 mg of Brine shrimp eggs were placed in a 500 mL beaker, 400 mL of artificial seawater was added, the Brine shrimp eggs were slowly inflated with an air pump and hatched at room temperature for 24 h, the egg shells and unhatched eggs were removed, and the Brine shrimps were further incubated for 24 h.
The compound to be tested was dissolved in DMSO to obtain a 20 mg/mL mother liquor, and the mother liquor was then sequentially diluted twice to obtain 10, 5 and 2.5 mg/mL solutions for later use.
195 μL of artificial seawater containing 10-15 Brine shrimps were added into each well of a 96-well cell culture plate to make a test culture plate. […] After incubation at room temperature for 24 h, the number of Brine shrimp deaths was counted under a binocular dissecting microscope. […]

For the compound `CC1=C[C@H](O)[C@H]2C[C@@H](C)CC[C@@H]2[C@@]1(C)C(=O)CCO` [Compound 1], in data set [1], the inhibition at 2.5 µg/mL came to 52.7 ± 1%, the inhibition at 5 µg/mL turned out to be 64.7 ± 0.9% and the inhibition at 10 µg/mL amounted to 81.5%. In the data set on Brine shrimp, the “lethal activity of Brine shrimp” value was “do not exhibit the lethal activity”.
Take `C[C@H]1CC[C@H]2[C@@H](C=C[C@@](C)(O)[C@]2(C)C(=O)CCOC(=O)Cc2ccc(O)c(O)c2)C1` [Compound 2]: in data set [1], the inhibition at 2.5 µg/mL amounted to 41 ± 0.8%, the inhibition at 5 µg/mL came to 55.4 ± 1.2% and the inhibition at 10 µg/mL amounted to 79.6%. Further, the “lethal activity of Brine shrimp” value in the data set on Brine shrimp is listed as “do not exhibit the lethal activity”.
Regarding `CCOCN(C(=O)CCl)c1c(C)cccc1CC` [Acetochlor, reference compound], in data set [1], the inhibition at 2.5 µg/mL is 54.8 ± 1.3%, the inhibition at 5 µg/mL is 65.6 ± 1.8% and the inhibition at 10 µg/mL was 76.1 ± 1.4%.
